The record followed here is US6537977B1, “Anti-inflammatory agent” (Seikagaku Corporation, priority 1995, dated 2003).

The test system of data set [1] is MRL (1 pr/1 pr) mice. The settings on record: single administration of 10 mg/kg endoxan.
Protocol: (§2) Ten weeks old male MRL (1 pr/1 pr) mice was used as experimental animals and DS prepared according to reference example 1 was used as an agent by dissolving it in sterile physiological saline solution on use.
(§3) Sterile physiological saline solution was administered in negative control group (non-treated group).
DS was daily, 5 times per week (neither on Saturday or on Sunday), administered into tail vein in mice using 1 ml disposable syringe at the dose level of 25 mg/kg/day. […] During administration, animals were daily observed carefully. After 8 weeks, blood samples were taken under anesthesia with Nembutal and animals were killed by exsanguination. Then, serum creatinine level, spleen weight and the weight of mesenteric lymph node were measured.
Treatment for enlarged spleen in MRL mice was tried. […] The dose of DS was 25 mg/kg in any case.
Data set [2] relates to MRL (1 pr/1 pr) mice. The settings on record: single administration of 20 mg/kg endoxan i.p. once a week, 8 weeks.
Protocol: as §2, §3
At the age of 10 weeks old, body weight of animals were weighed and blood samples were taken for determination of serum BUN (urea nitrogen) and serum creatinine. […] DS was daily, 5 times per week (neither on Saturday or on Sunday), administered into tail vein in mice using 1 ml disposable syringe at the dose level of 25 mg/kg/day. […] During administration, animals were daily observed carefully. After 8 weeks, blood samples were taken under anesthesia with Nembutal and animals were killed by exsanguination. Then, serum creatinine level, spleen weight and the weight of mesenteric lymph node were measured.
Details of data set [3]: species or system SD male rats. The following applies: rat, in vivo. As for the experimental part: X represents overlapping ◯ and ●.
Dermatan sulfate derived from crest and dermatan sulfate derived from bovine intestine (see reference example 2 in WO95/09188) were administered into tail vein of SD male rats and changes with the passage of time in the residual level of dermatan sulfate in blood were determined and the residual rate thereof to the initial level of dermatan sulfate on administration was calculated (see example 1 in the above International publication). […] Thus, since dermatan sulfate derived from crest or dermatan sulfate with the equivalent physical properties has a long life span in blood and sustained anti-inflammatory effects, a large dosage thereof is not required for the treatment and dermatan sulfate derived from crest or equivalent thereof is the most preferable.

Data set [4] deals with MRL (1 pr/1 pr) mice with nephritis. Briefly: Mice SLE model-1: histopathological observations of kidney (MC and DP glomeruli). The class given is in vivo. The settings on record: 4 weeks. The method, then: As SLE model, 17 weeks old male MRL (1 pr/1 pr) mice were used, while C57BL/6 mice with the same age and sex were used as normal control. As agents, DS or low molecular weight heparin (LMWHep, Fragmin) prepared according to a method in reference example 1 was dissolved in sterile physiological saline solution on use.
(§1) Blood samples were taken from 17 weeks old mice, only MRL mice with nephritis whose level of blood urea nitrogen (BUN) were high at the nearly same level were selected and divided into 4 groups, each group consisting of 5 mice. Sterile physiological saline solution was administered in one group as non-treated control group, 5 mg/kg of DS, 25 mg/kg of DS and 1 mg/kg of LMWHep were administered into tail vein in another 3 groups, once per day and five times per week. […] Serum and plasma taken were used for determination of BUN, creatinine and fibrinogen and kidneys were used for histopathological examination.

The test system is the same in data set [5]. Nature of the data set: Mice SLE model-1: histopathological change of renal artery (angiitis). The settings on record: for angiitis intermediate degree, number of individual / angiitis serious degree, number of individual / angiitis slight degree, number of individual: 5 mice. Format: in vivo.
Data set [6] has the same test system. Nature of the data set: Mice SLE model-1: fibrinogen level in blood. The class given is in vivo.
Data set [7] has the same test system. Nature of the data set: Mice SLE model-1: effects on renal function (serum BUN, creatinine). Format: in vivo. The following applies: once per day, five times per week, 4 weeks. As for the experimental part:
as §1, with “As agents, DS or low molecular weight heparin ([…], Fragmin) prepared according to a method in reference example 1 was dissolved in sterile physiological saline solution on use. Blood” for “Blood”, “LMWHep” left out, “examination. […] In FIG. 3b, * means that there is a significant difference with p<0.05 from non-treated control group by Bonferroni examination. Both of BUN and creatinine level of non-treated control group were higher than those of normal control group(C57BL/6), which made it clear that renal function thereof was impaired.” for “examination.”

The next data set concerns Cri; CD-1 mice. Briefly: Toxicity test by single intravenous administration. Format: in vivo. As for the experimental part:
Toxicity test by single intravenous administration of dermatan sulfate(1) Experimental method
As experimental animals, five weeks old female and male Cri; CD-1 mice (Japanese Charles-river (n=5 each) were used. The DS solution obtained by the same method as in reference example 1 was made isotonic using sterile distilled water and sterile physiological saline solution and single 2000 mg/kg of DS was administered intravenously into tail vein in mice and clinical observations were carried out for 14 days.

The subject of data set [8] is Lewis rats with experimental allergic encephalomyelitis. Briefly: Rat experimental allergic encephalomyelitis (EAE), multiple sclerosis model. Format: in vivo. The settings on record: 5 mg DS i.p. once a day since third day after immunization.

With `O=P1(N(CCCl)CCCl)NCCCO1` (stereo not drawn) [endoxan, Cyclophosphamide], the “spleen weight, compared with negative control group” value with MRL (1 pr/1 pr) mice [1] is “did not give any effect”. Besides, in the data set with MRL (1 pr/1 pr) mice [2], the “serum creatinine level, compared with negative control group” value is recorded as “did not exhibit any effect”.

dermatan sulfate [reference compound]: the “residual rate of dermatan sulfate in blood” value in data set [3] is “scarcely detected”.

In the case of “low molecular weight heparin [LMWHep, reference compound]”, in [4] (1 mg/kg), the “ratio of DP glomeruli (number of DP glomeruli/total number of glomeruli)” value is “such an effect was not recognized” and the “ratio of MC glomeruli (number of MC glomeruli/total number of glomeruli)” value is “slightly increased”. In [5] (1 mg/kg group), the “histopathological evaluation of angiitis of renal artery, versus non-treated group” value was “not a big difference”; the “angiitis intermediate degree, number of individual” value (from here on “angiitis intermediate degree”) came to 1; the “angiitis serious degree, number of individual” value (“angiitis serious degree, number” for short) was 4; the “angiitis slight degree, number of individual” value (“angiitis slight degree, number” below) stood at 0. The “suppression of increase of fibrinogen level in blood” value in data set [6] (1 mg/kg group) is on record as “did not scarcely recognized”. Further, in [7] (1 mg/kg tail vein), the BUN level entry is listed as “slightly improved” and the creatinine level entry is on record as “slightly improved”.

Consider sodium salt of dermatan sulfate [DS], for which, in data set [4] (5 mg/kg), the “ratio of DP glomeruli (number of DP glomeruli/total number of glomeruli)” value was “clearly decreased in a dose-dependent manner” and the “ratio of MC glomeruli (number of MC glomeruli/total number of glomeruli)” value was “slightly increased”. Besides, in data set [4] (25 mg/kg), the “ratio of DP glomeruli (number of DP glomeruli/total number of glomeruli)” value was “clearly decreased in a dose-dependent manner” and the “ratio of MC glomeruli (number of MC glomeruli/total number of glomeruli)” value is recorded as “significantly increased”. Besides, in data set [5] (5 mg/kg group), the “histopathological evaluation of angiitis of renal artery, versus non-treated group” value is “not a big difference”; the “angiitis intermediate degree” value is reported as 2; the “angiitis serious degree, number” value is listed as 3; the “angiitis slight degree, number” value is given as 0. In data set [5] (25 mg/kg group), the “histopathological evaluation of angiitis of renal artery” value is “individual with serious degree decreased and individual with intermediate and slight degree increased”; the “angiitis intermediate degree” value is reported as 3; the “angiitis serious degree, number” value is recorded as 1; the “angiitis slight degree, number” value is 1. Besides, in data set [3], the “residual rate of dermatan sulfate in blood” value is reported as “about 10%” and the “residual rate of dermatan sulfate in blood, compared with dermatan sulfate derived from bovine intestine” value is “twice as much”. For the same compound, the “death after 14 days observation” value in the data set with Cri; CD-1 mice (single 2000 mg/kg i.v. tail vein, 5 female and 5 male mice) is given as “no death”. For the same compound, the lethal dose entry in the data set on Cri; CD-1 mice (single i.v. tail vein, mice, 14 days observation) is “more than 2000 mg/kg”. Besides, in data set [6] (5 mg/kg group), the “increase of fibrinogen level in blood” value is reported as “suppressed in a dose-dependent manner”. Further, the “increase of fibrinogen level in blood” value in data set [6] (25 mg/kg group) is listed as “suppressed in a dose-dependent manner”. Besides, in [7] (5 mg/kg tail vein), the BUN level result was “slightly improved” and the creatinine level entry is “slightly improved”. Further, the BUN level entry in [7] (25 mg/kg tail vein) is given as “slightly improved”. Besides, in [7] (25 mg/kg tail vein, p<0.05 vs non-treated control), the creatinine level result is “significantly improve”. In data set [8], this compound had a mean onset day of 9.5±0.5. The accumulated clinical scores in data set [8] (p<0.05 vs control group) stood at 12.4±1.7.
